Tests used:
[1] = tested on: lethally irradiated recipient mice; experiment: Survival of lethally irradiated recipients of suboptimal BMMC from treated donors; type: in vivo
Excerpt: FIGS. 14A and 14B are graphs showing survival analysis by the method of Kaplan-Meyer in lethally irradiated recipients of suboptimal BMMC (1.5×10^5 donor BMMC (A) and 0.75×10^5 donor BMMC (B)) from vehicle or PGE2-treated donors.
Moreover, since ST-HSC confer radioprotection, PGE2-dependent ST-HSC expansion would be expected to improve survival of lethally irradiated recipients receiving limiting numbers of BMMC from PGE2 vs vehicle-treated mice. To test this hypothesis, adult C57Bl/6 donor mice were treated with PGE2 or vehicle prior to bone marrow harvest. Recipient mice received myeloablative doses of radiation and suboptimal BMMC numbers (FIGS. 14A and 14B).

[2] = tested on: Jagged1; experiment: Jagged1 mRNA by real time RT-PCR in UMR106 cells; type: cell-based; details: UMR106 cells, PGE2 10^−7 M, at 2 hours, corrected for beta-actin
Description: UMR 106 cells were serum starved for 24 hours and then treated with a single dose of vehicle (controls) or PGE2 at a concentration of 10^-7 M. RNA was collected from both control and treated samples to assess the fold change in Jagged1 mRNA by real time RT-PCR analysis corrected for by beta-actin. FIG. 1B is a Western blot showing total protein that was collected from both control and treated samples exposed to Jagged1 antibody, C20. Positive control (+ctr) was provided by HS27a cells, a human stromal cell line with high levels of Jagged1 protein, while HS5 cells from a human stromal cell line with minimal Jagged1 levels were used as a negative control. […] UMR106 cells were serum starved for 24 hours. They were pre-treated with H89 for 30 minutes followed by a single dose of PGE2 at 10^-7 M or vehicle. RNA was collected from both control and treated samples to assess the fold change in Jagged1 RNA by real time RT-PCR analysis corrected for by β-actin. […] UMR106 cells were serum starved for 24 hours. […] Total protein was collected from both PGE2 and vehicle treated samples for Western blot analysis with Jagged1 antibody C-20. UMR106 cells were grown in DMEM supplemented with 1.5 g/l sodium bicarbonate, 10% FBS, penicillin (100 U/ml), streptomycin (100 U/ml). After three days of growth the cells were 80% confluent and media was replaced with serum-free media. After 24 hr in serum-free media, PGE2 was added in noted concentrations. UMR 106 cells were treated with the Protein Kinase A (PKA) inhibitors H89 (0.5 hr prior to PGE2 treatment), and myristoylated PKI (0.5 hr prior to PGE2 treatment). […] At the designated times, total RNA and protein were harvested. Total RNA was extracted and analyzed by real time RT-PCR, normalizing for β-actin expression and t=0. Total protein was analyzed by Western blots performed using the […] system (Invitrogen, Carlsbad, Calif.). Blots were probed with Jag1 c-20 antibody (Santa Cruz Biotechnology, Inc., Santa Cruz, Calif.), and the loading control was B-actin.

[3] = tested on: ST-HSC / LT-HSC activity; experiment: Colony Forming Unit-Spleen (CFU-S) assay; type: in vivo, mice
Excerpt: FIG. 13A show CFU-S images of selected spleens after fixation. FIGS. 13B and 13C are graphs showing quantification of colonies per spleen at days 8 (FIG. 13B) and 10 (FIG. 13C) after transplantation.
ST vs LT-HSC activity can also be quantified by the in vivo clonogenic Colony Forming Unit-Spleen (CFU-S) assay, where day 8 CFU-S is closely associated with ST-HSC, while day 10-12 CFU-S are associated with LT-HSC activity.

[4] = tested on: Jagged1; experiment: Jagged1 protein by Western blot in UMR106 cells; type: cell-based; details: UMR106 cells after treatment with PGE2, Western blot, antibody C-20
Description: UMR 106 cells were serum starved for 24 hours and then treated with a single dose of vehicle (controls) or PGE2 at a concentration of 10^-7 M. RNA was collected from both control and treated samples to assess the fold change in Jagged1 mRNA by real time RT-PCR analysis corrected for by beta-actin. FIG. 1B is a Western blot showing total protein that was collected from both control and treated samples exposed to Jagged1 antibody, C20. Positive control (+ctr) was provided by HS27a cells, a human stromal cell line with high levels of Jagged1 protein, while HS5 cells from a human stromal cell line with minimal Jagged1 levels were used as a negative control. FIG. 2A is a graph showing that inhibition of PKA blocks PGE2-dependent increase of Jagged1 in UMR 106 cells. UMR106 cells were serum starved for 24 hours. They were pre-treated with H89 for 30 minutes followed by a single dose of PGE2 at 10^-7 M or vehicle. RNA was collected from both control and treated samples to assess the fold change in Jagged1 RNA by real time RT-PCR analysis corrected for by β-actin. […] UMR106 cells were serum starved for 24 hours. […] Total RNA was extracted and analyzed by real time RT-PCR, normalizing for β-actin expression and t=0. Total protein was analyzed by Western blots performed using the […] system (Invitrogen, Carlsbad, Calif.). […]

With CCCCC[C@H](O)/C=C/[C@H]1[C@H](O)CC(=O)[C@@H]1C/C=C\CCCC(=O)O [PGE2, Prostaglandin E2] the “survival 30 days after transplantation” value ([1]; 75,000 donor cells from treated donors, p=0.0173) was 53%, the “survival 30 days after transplantation” value ([1]; 150,000 donor cells from treated donors, p=0.0018) was 80% and the “Jagged1 mRNA increase compared to vehicle” value [2] was “up to 5 fold”. The CFU-Sd8 ([3]; day 8, BMMC from treated mice, n=4, p=0.0053) was 10.5 CFU-S per 60,000 BMMC, the CFU-Sd10 ([3]; day 10, BMMC from treated mice, n=6, p=0.4950) was 12.5 CFU-S per 60,000 BMMC and the Jagged1 protein [4] was “increased”.
